Experimental data: patent US20260021071A1, “SMALL MOLECULE BROAD-SPECTRUM ANTIBIOTICS” (University of Florida Research Foundation, Incorporated, priority 2022, published 2026)

Columns and labels:
[1] = tested on: PAO1; assay: microbe, parasite or virus in culture; format: cell-based; conditions: Pseudomonas aeruginosa, PAO1, read-out: PAO01 IC50 (μM)
[2] = tested on: E. coli W3110 a TolC::Tn10 inclusive strain; assay: microbe, parasite or virus in culture; format: cell-based; conditions: Escherichia coli, read-out: W3110 IC50 (μM)
[3] = in vitro; conditions: human, wild-type HepG2 cells (ATCC)
[4] = tested on: PAO200 P. aeruginosa bacteria, the MexAB-OprM efflux pump minus strain of PAO1; assay: microbe, parasite or virus in culture; format: cell-based; conditions: Pseudomonas aeruginosa, PAO1, read-out: PAO200 IC50 (μM)
[5] = tested on: NRS135 gram-positive S. aureus strain expressing NorA::tetM; assay: microbe, parasite or virus in culture; format: cell-based; conditions: Staphylococcus aureus, NRS135, read-out: NRS135 IC50 (μM)

`N#Cc1cccc(NC(=O)Nc2cccc(Cl)c2)c1` [Compound 6] gave an IC50 [1] of 55 µM, an IC50 [2] of 5.99 µM and a CC50 [3] of 21.1 µM. For the same molecule, the IC50 [4] was 24.7 µM and the IC50 [5] was 19.8 µM.

With `COc1cc(NC(=O)c2cccc(-n3cc(Nc4nnnn4-c4ccccc4)cn3)c2)ccc1N1CCOCC1` [Compound 13] the IC50 [1] was 95.7 µM, the IC50 [2] was 8.71 µM and the IC50 [4] was 13.9 µM. It also gave an IC50 [5] of 15.6 µM.

With `CCOC(=O)c1cccc(-n2cc(Nc3nnnn3-c3ccccc3)cn2)c1` [Compound 14] the IC50 [1] was ≥ 55 µM, the IC50 [2] was 14.6 µM and the CC50 [3] was > 24.8 µM. It also gave an IC50 [4] of 20.5 µM and an IC50 [5] of 43.6 µM.

In the case of `c1ccc(CNc2ncnc3c2[nH]c2ccccc23)cc1` [Compound 16], the IC50 [1] was ≥ 55 µM, the IC50 [2] was 15.9 µM and the CC50 [3] was > 24.8 µM. For the same molecule, the IC50 [4] was 41.5 µM and the IC50 [5] was ≥ 55 µM.

With `O=C(Nc1ccc(N2CCOCC2)cc1)c1cccc(-n2cc(Nc3nnnn3C3CCCCC3)cn2)c1` [Compound 12] the IC50 [1] was 103 µM, the IC50 [2] was 29.1 µM and the IC50 [4] was 22.3 µM. It also gave an IC50 [5] of 38.7 µM.

For `N#Cc1ccc(NC(=O)Nc2cccc(Cl)c2)cc1` [Compound 7], the IC50 [1] was ≥ 55 µM, the IC50 [2] was 3.82 µM and the CC50 [3] was 23.8 µM. The IC50 [4] was 24.7 µM and the IC50 [5] was 9.77 µM.

For `Cc1ccc(Nc2nc3nonc3nc2NC(C)C)cc1C` [Compound 4], the IC50 [1] was ≥ 55 µM, the IC50 [2] was 6.29 µM and the CC50 [3] was 11.4 µM. For the same molecule, the IC50 [4] was 24.7 µM and the IC50 [5] was 26.5 µM.

Work on `O=C(Nc1ccc([N+](=O)[O-])cc1)NC(C(F)(F)F)C(F)(F)F` [Compound 8] yielded an IC50 [1] of 39.5 µM, an IC50 [2] of 8.89 µM and an IC50 [4] of 31.5 µM. It also gave an IC50 [5] of 18.1 µM.

For `Cc1cc(F)ccc1NC(=S)Nc1ccc(S(=O)(=O)Nc2ncccn2)cc1` [Compound 11], the IC50 [1] was ≥ 55 µM, the IC50 [2] was 7.08 µM and the CC50 [3] was > 24.8 µM. The IC50 [4] was 28.2 µM and the IC50 [5] was ≥ 55 µM.

In the case of `CNc1cc(Cl)c2nonc2c1[N+](=O)[O-]` [Compound 3], the CC50 [3] was > 25.4 µM.

For `O=[N+]([O-])c1c(Nc2ccccc2)cc(Cl)c2nonc12` [Compound 2], the IC50 [1] was 18 µM, the IC50 [2] was 15.2 µM and the CC50 [3] was > 20 µM. It also gave an IC50 [4] of 1.3 µM and an IC50 [5] of 2.47 µM.

In the case of `O=S(=O)(Nc1nccs1)c1ccc(NC(=S)Nc2ccc(F)cc2)cc1` [Compound 10], the IC50 [1] was ≥ 55 µM, the IC50 [2] was 4 µM and the CC50 [3] was > 24.8 µM. For the same molecule, the IC50 [4] was 12.5 µM and the IC50 [5] was 17.5 µM.

`Cc1c(Nc2nc3nonc3nc2Nc2ccc(F)cc2)c(=O)n(-c2ccccc2)n1C` [Compound 5] showed an IC50 [1] of 42 µM, an IC50 [2] of 3.77 µM and a CC50 [3] of 20.6 µM. For the same molecule, the IC50 [4] was 39.2 µM and the IC50 [5] was 9.37 µM.

With `COc1cccc(CN2CCC3(CC2)NCCc2c3[nH]c3ccccc23)c1` [Compound 17] the IC50 [1] was 28.2 µM, the IC50 [2] was 47.4 µM and the CC50 [3] was > 24.8 µM. The IC50 [4] was 39 µM and the IC50 [5] was ≥ 55 µM.

With `O=C(CCn1cnc2ccccc2c1=O)Nc1cccc(Cl)c1` [Compound 15] the IC50 [1] was 38.6 µM, the IC50 [2] was 0.873 µM and the CC50 [3] was > 24.8 µM. The IC50 [4] was 2.7 µM and the IC50 [5] was 47.4 µM.

For `O=S(=O)(Nc1nccs1)c1ccc(NC(=S)Nc2ccccc2)cc1` [Compound 9], the IC50 [1] was ≥ 55 µM, the IC50 [2] was 3.8 µM and the CC50 [3] was > 24.8 µM. For the same molecule, the IC50 [4] was 12.3 µM and the IC50 [5] was 21.9 µM.
